Measured values published in the NIST ThermoML archive (doi:10.1016/j.jct.2006.12.017).
Numbers after ± are expanded uncertainties.

How the values were obtained:
[1] = Liquid; for mass density: 101.33 kPa
[2] = refractive index (Na D-line) (dimensionless); details: 101.33 kPa, Liquid

| SMILES | mass density ([1]; 293.15 K) [kg/m3] | refractive index ([2]; 293.15 K) | also measured |
| --- | --- | --- | --- |
| ClC(Cl)C(Cl)Cl [1,1,2,2-tetrachloroethane] | 1593 ± 3.6 | 1.494 ± 0.005 | vapor or sublimation pressure ([1]; 417.15 K): 95.23 ± 5 kPa |
| ClCCCl [1,2-dichloroethane] | 1252.9 ± 2.7 | 1.4196 ± 0.005 | vapor or sublimation pressure ([1]; 355.05 K): 95.23 ± 5 kPa |
| Cc1ccccc1C [1,2-dimethylbenzene] | 880.1 ± 1.9 |  | vapor or sublimation pressure ([1]; 415.35 K): 95.23 ± 5 kPa |
| Cc1cccc(C)c1 [1,3-dimethylbenzene] | 864.4 ± 1.7 | 1.4972 ± 0.005 | vapor or sublimation pressure ([1]; 410.15 K): 95.23 ± 5 kPa |
| Cc1ccc(C)cc1 [1,4-dimethylbenzene] | 861 ± 1.7 | 1.4858 ± 0.005 | vapor or sublimation pressure ([1]; 409.15 K): 95.23 ± 5 kPa |
| Cc1ccc(O)cc1 [4-methylphenol] |  |  | vapor or sublimation pressure ([1]; 472.85 K): 95.23 ± 5 kPa; refractive index ([2]; 298.15 K): 1.5391 ± 0.005 |
| ClC(Cl)=C(Cl)Cl [tetrachloroethene] | 1625 ± 3.7 | 1.505 ± 0.005 | vapor or sublimation pressure ([1]; 392.05 K): 95.23 ± 5 kPa |
| ClC=C(Cl)Cl [trichloroethene] |  |  | mass density ([1]; 298.15 K): 1464 ± 3.3 kg/m3; vapor or sublimation pressure ([1]; 358.35 K): 95.23 ± 5 kPa; refractive index ([2]; 298.15 K): 1.4782 ± 0.005 |
